Consider five molecules from publication PMC8096265, “A functional LSD1 coregulator screen reveals a novel transcriptional regulatory cascade connecting R-loop homeostasis with epigenetic regulation” (Nucleic Acids Research, 2021).

Data set [1] concerns EZH2. As to the kind of experiment: Global H3K27me3 signal after EZH2 inhibition. The note with it: EZH2-specific inhibitor; Supplementary Figure S6C. The class given is cell-based.
Data set [2] relates to RNA:DNA hybrid structures (R-loops) in NIH/3T3 cells. As to the kind of experiment: DRIP-qPCR with S9.6 antibody, R-loops. The class given is cell-based, murine. The conditions noted are these: relative to DMSO, NIH/3T3, n = 3. The procedure: Based on a detailed assessment of various DRIP protocols ([53]), DRIP was performed as described, with slight adaptations to workflow #19 ([53]). In brief, NIH/3T3 cells were harvested, washed once with 1X PBS and cross-linked in 1% formaldehyde/PBS for 10 min at room temperature. Crosslinking was quenched with 500 mM glycine for 5 min at room temperature. Cells were lysed in 300 μl of ChIP lysis buffer (50mM HEPES–KOH at pH 7.5, 140 mM NaCl, 1 mM EDTA at pH 8, 1% Triton X-100, 0.1% sodium-deoxycholate, 1% SDS) per 2 million cells for 30 min on ice and homogenized with a syringe every 10 min. Chromatin was fragmented by sonication using an EpiShear Probe Sonicator (Active Motif) for 2 × 12 cycles (20 s pulse, 30 s pause, 40% amplitude). The fragmented chromatin was supplemented with 300 mM NaCl and 50 μg of RNase A in 450 μl TE buffer (10 mM Tris–HCl pH 8, 10 mM EDTA pH 8) and incubated at 37°C for 1 h. The cross-linked D. melanogaster mononucleosomes were treated in parallel to obtain DNA for spike-in controls. To remove proteins and reverse the cross-links, the samples were treated with 15 μl of Proteinase K (20 mg/ml; Thermo Fisher Scientific) at 65°C for 16 h. […] The pellet was resuspended in 5 mM Tris–HCl, pH 8.5 and concentration was determined by NanoDrop. […]

For data set [3], the system named is rTetR-LSD1 at synP-mCherry reporter in NIH/3T3 cells. Description: Flow-cytometric synP-mCherry reporter silencing by rTetR-LSD1. The format is cell-based, murine. The conditions noted are these: n = 3; for effect of inhibitor on rTetR-LSD1 activity at synP (mCherry silencing): 10 μM GSK-LSD1 or 400 nM TSA, started in parallel with DOX (1 μg/ml), vs DMSO. An excerpt: The fluorescent reporter expressing mCherry from a synthetic promoter (synP), consisting of six tetO binding sites upstream of an EF1a promoter, was cloned into pMSCV vector, on which expression of mCherry was driven by the synP promoter element and coupled to Blasticidin resistance via a P2A (pMSCV-tetO-EF1a-mCherry-2A-Blasti). The rTetR-LSD1 fusion construct was cloned into a pRRL backbone by standard cloning methods. The LSD1 construct was kindly provided by Tim Somervaille. Expression was driven from an SFFV promoter and coupled to Hygromycin resistance via a P2A sequence (pRRL-rTetR-LSD1-P2A-Hygro). shRNA guides were cloned into the SGEN vector ([49]).
NIH/3T3, Lenti-X 293T and Platinum-E retroviral packaging cell lines were cultivated in DMEM high glucose media (Sigma-Aldrich) supplemented with 10% FBS, 20 mM glutamate, 10 mM sodium pyruvate, 10 mM HEPES (pH 7.3), 100 U/ml penicillin and […] in an incubator providing 37°C and 5% CO2. For retroviral packaging of pMSCV vectors, 20 μg of plasmid were precipitated for 20 min in HBS buffer (140 mM NaCl, 25 mM HEPES, 0.75 mM Na2HPO4, pH 7.0) together with 125 mM CaCl2 and 10 μg GagPol helper plasmid. The mix was added to a 10 cm dish with Platinum-E cells growing at 75–85% confluence in supplemented DMEM. After 16 and 24 h, the media was replaced with fresh DMEM. Supernatant containing the virus was gathered 40–50 h after transfection, filtered through a 0.45 μm filter and added to the target cells at 50–70% confluence. Antibiotic selection for pMSCV-tetO-EF1a-mCherry-2A-Blasti with 10 μg/ml Blasticidin was started 2 days after transduction and kept up for 7 days. For […] packaging of pRRL-vectors, plasmids were mixed with helper plasmids pCMVR8.74 (pCMVR8.74 was a gift from Didier Trono, Addgene #22036) and pCAG-Eco (pCAG-Eco was a gift from Arthur Nienhuis & Patrick Salmon, Addgene #35617) and 3× (w/w) excess of polyethyleneimine 25K in serum free DMEM. […] Expression of GFP and mCherry was analysed every 1–3 days using a MACSQuant Vyb flow cytometer.

Data set [4] deals with rTetR-LSD1 silencing of synP-mCherry in NIH/3T3 cells. Description: ChECS pooled shRNA screen, primary sequencing data. The format is cell-based, murine. The conditions noted are these: 14 days DOX; for sequencing reads neg2 / sequencing reads neg3 / sequencing reads neg4 / sequencing reads neg5: mCherry-negative sorted population; for sequencing reads neg2 / sequencing reads pos2: replicate 2; for sequencing reads neg3 / sequencing reads pos3: replicate 3; for sequencing reads neg4 / sequencing reads pos4: replicate 4; for sequencing reads neg5 / sequencing reads pos5: replicate 5; for sequencing reads pos1 / sequencing reads pos2 / sequencing reads pos3 / sequencing reads pos4 / sequencing reads pos5: mCherry-positive sorted population; for sequencing reads pos1: replicate 1. The source says:
After spiking in control shRNAs at equimolar amounts, the shRNA-mirE library (5451 shRNAs and 8 control shRNAs) targeting 1010 chromatin-associated murine genes was transduced into NIH/3T3 cells expressing the synP-mCherry reporter and rTetR-LSD1. To ensure library representation, a total of 30 million cells were infected with 10% transduction efficiency using conditions that predominantly lead to a single retroviral integration and represent each shRNA in a calculated number of >500 cells. Cells were split into replicates and selected with 2.5 mg/ml Neomycin for 7 days before starting treatment with 1 μg/ml doxycycline. Throughout selection >3 × 10^6 cells per replicate were maintained at each passage to preserve library representation. After 14 days of DOX treatment, cells were sorted into mCherry-positive (top 6–8%, minimum of 5 × 10^5 cells) and mCherry-negative (lowest 75–80%, minimum of 6 × 10^6 cells, see Supplementary Figure S2) populations using a FACS Aria III. Genomic DNA for both populations and 5 replicates was isolated with phenol-extraction using PhaseLock tubes, followed by ethanol precipitation. For each sample, DNA from at least 10^6 cells was used as template in multiple parallel 50-μl PCR reactions, each containing 1 μg template, 1× AmpliTaq Gold buffer, 0.2 mM of each dNTP, 2 mM MgCl2, 0.3 μM of each primer and 1.25 U AmpliTaq Gold Polymerase (Life Technologies). In a first round of PCRs, random barcodes and sample barcodes were added to the shRNA sequences using the following cycling parameters: 95°C for 10 min; 28 cycles of (95°C for 30 s, 54°C for 45 s and 72°C for 60 s); 72°C for 7 min and primers MM2P51_for and MM2P71_rev (Supplementary Table S3). PCR products were combined for each sample, purified from a 1% agarose gel and 20 ng per sample were transferred to a second round of PCR, using similar cycling parameters as for PCR1, but with only 10 ng template per reaction, 6 cycles of amplification and primers MM2P52_for and MM2P72_rev_N708 (Supplementary Table S3). In the second PCR, standard Illumina P7 adaptors and the Illumina N708 index were added to the sequences (total product length = 428 bp). All primers used for the library preparation are listed in […]. The final libraries were cleaned up from a 1% agarose gel, pooled and analysed on an Illumina HiSeq 3000 deep sequencer (150 bp read length including the 22 nucleotides of the guide strand), using standard Illumina primers. Sequence processing was performed using a public Galaxy server (www.usegalaxy.eu). All primary screen data are provided in Supplementary Data Table S1. For each shRNA, the number of matching reads was normalized to the total number of library-specific reads per lane and imported into Microsoft Excel for further analysis. Completely depleted shRNAs (0 reads at T0) obtained a fold depletion value of 1 × 10^−3. The average enrichment score for each individual shRNA was calculated by dividing the geometric mean of the normalized reads of the mCherry+ population by the respective normalized reads mCherry– populations (mCherry+/mCherry–) across five replicates. The gene score was derived by summarizing the average enrichment score of all shRNAs per gene. P-values are based on a Poisson distribution of each shRNA in each individual replicate followed by the combination of all P-values across all replicates using Fisher′s method (cumulative χ^2). χ^2 is a chi-squared distribution with 2k degrees of freedom, where k is the number of tests being combined. This fact was used to determine the P-value for χ^2 followed by a Bonferroni correction for multiple comparison to obtain a P-value for each investigated gene in the library.

Turning to `CCCc1cc(C)[nH]c(=O)c1CNC(=O)c1cc(-c2ccnc(N3CCN(C)CC3)c2)cc2c1cnn2C(C)C` [GSK343], the “H3K27me3 signal after GSK343 treatment” value in data set [1] was “global reduction of H3K27me3 signal”. Besides, the “R-loop occupancy after GSK343 treatment” value in data set [2] (5 μM GSK343, 3 days, synP element and representative endogenous loci) is reported as “increased R-loop occupancy”. Moreover, in data set [3] (5 μM GSK343 vs DMSO during rTetR-LSD1 recruitment via DOX, time course), the “LSD1 silencing capacity at the synP element after GSK343 treatment” value was “diminished LSD1 silencing capacity at the synP element”.
Take `CC(/C=C/C(=O)NO)=C\[C@@H](C)C(=O)c1ccc(N(C)C)cc1` [Trichostatin A (TSA), Trichostatin A]: the “effect of inhibitor on rTetR-LSD1 activity at synP (mCherry silencing)” value in data set [3] was “the activity of rTetR-LSD1 at the synP element is dependent on the catalytic activity of LSD1 and HDACs”.
Turning to `c1ccc([C@@H]2C[C@H]2NC2CCNCC2)cc1` [GSK-LSD1], in data set [2] (50 μM GSK-LSD1, 3 days, synP element and representative endogenous regions), the “R-loops after GSK-LSD1 treatment” value is reported as “substantial increase in R-loops”. Also, the “effect of inhibitor on rTetR-LSD1 activity at synP (mCherry silencing)” value in data set [3] was “the activity of rTetR-LSD1 at the synP element is dependent on the catalytic activity of LSD1 and HDACs”.
For the molecule “Homez.5313: library shRNA, guide TAAAACAGTAGTTCCTAGCCTT”, in data set [4], the “sequencing reads neg2” value is recorded as 0.001, the “sequencing reads neg3” value is 22, the “sequencing reads neg4” value is 0 and the “sequencing reads neg5” value was 4. Besides, in data set [4], the “sequencing reads pos1” value is on record as 130, the “sequencing reads pos2” value is given as 19, the “sequencing reads pos3” value was found to be 22 and the “sequencing reads pos4” value was found to be 4. Moreover, the “sequencing reads pos5” value in data set [4] is 48.
For “Kdm4b.2934: library shRNA, guide TTCTTGGTGATGACGATCTGGC”, in data set [4], the “sequencing reads neg2” value was 0.001, the “sequencing reads neg3” value turned out to be 0, the “sequencing reads neg4” value is on record as 0 and the “sequencing reads neg5” value is reported as 14. In addition, in data set [4], the “sequencing reads pos1” value is listed as 14, the “sequencing reads pos2” value is given as 426, the “sequencing reads pos3” value was found to be 0 and the “sequencing reads pos4” value was 1. For the same molecule, in data set [4], the “sequencing reads pos5” value amounted to 159.
